In patent publication US20190358181A1, “METHODS FOR AUTISM SPECTRUM DISORDER PHARMACOTHERAPY” (priority 2017, published 2019):

System: 610 metabolites from 63 biochemical pathways
Assay: Targeted broad-spectrum plasma metabolomic analysis (LC-MS/MS), paired pre-infusion vs post-infusion (2-days and 6-weeks)
Assay type: in vivo, human
Settings: for Linear Ratio / VIP Score / Z Abs / Z Score: plasma
Procedure: Targeted, broad-spectrum, plasma metabolomic analysis of 610 metabolites from 63 biochemical pathways was performed by high performance liquid chromatography and tandem mass spectrometry (LC-MS/MS) on the samples collected from patients in Example 1. Venous blood was collected between the hours of 8 am and 5 pm, at least 3 hours after the last meal, into lithium-heparin vacutainer tubes (BD #367884). Plasma was separated by centrifugation at 900 g×10 minutes at room temperature within one hour of collection. The resulting fresh lithium-heparin plasma was transferred to labeled 1.2 ml or 2.0 ml externally threaded cryotubes with a minimum headspace air gap for storage at −80° C. for analysis. Samples were analyzed on an AB SCIEX QTRAP 5500 triple quadrupole mass spectrometer equipped with a Turbo V electrospray ionization (ESI) source, Shimadzu LC-20A UHPLC system, and a PAL CTC autosampler. Typically, 90 μl of plasma was thawed on ice and transferred to a 1.7 ml Eppendorf tube. Five (5.0) μl of a cocktail containing 25-35 commercial stable isotope internal standards, and 5.0 μl of 57 stable isotope internal standards that were custom-synthesized in E. coli NCM3722, Caenorhabditis elegans N2, and Komagataella phaffii (ATCC 76273; formerly known as Pichia pastoris) by metabolic labeling with 13C-glucose and 13C-bicarbonate, were added, mixed, and incubated for 10 min at 20° C. to permit small molecules and vitamins in the internal standards to associate with plasma binding proteins. Macromolecules (protein, DNA, RNA, glycans, etc.) were precipitated by extraction with 4 volumes (400 μl) of cold (−20° C.), acetonitrile:methanol (50:50) (LCMS grade, Cat #LC015-2.5 and GC230-4, Burdick & Jackson, Honeywell), vortexed vigorously, and incubated on crushed ice for 10 min, then removed by centrifugation at 16,000 g×10 min at 4° C. The supernatants containing the extracted metabolites and internal standards in the resulting 40:40:20 solvent mix of acetonitrile:methanol:water were transferred to labeled cryotubes and stored at −80° C. for LCMS/MS analysis.
LC-MS/MS analysis was performed by scheduled multiple reaction monitoring (sMRM) under Analyst v1.6.2 software control in both negative and positive mode with rapid polarity switching (50 ms). Nitrogen was used for curtain gas (set to 30), collision gas (set to high), ion source gas 1 and 2 (set to 35). The source temperature was 500° C. Spray voltage was set to −4500 V in negative mode and 5500 V in positive mode. The values for Q1 and Q3 mass-to-charge ratios (m/z), declustering potential (DP), entrance potential (EP), collision energy (CE), and collision cell exit potential (CXP) were determined and optimized for each MRM for each metabolite. Ten microliters of extract was injected by PAL CTC autosampler via a 10 μl stainless steel loop into a 250 mm×2.0 mm, 4 μm polymer based NH2 HPLC column (Asahipak NH2P-40 2E, Showa Denko America, Inc., NY) held at 25° C. for chromatographic separation. The mobile phase was solvent A: 95% water with 20 mM (NH4)2CO3 (Sigma, Fluka Cat #74415-250G-F), 5% acetonitrile, and 38 mM NH4OH (Sigma, Fluka Cat #17837-100ML), final pH 9.75; solvent B: 100% acetonitrile. Separation was achieved using the following gradient: 0-3.5 min: 95% B, 3.6-8 min: 85% B, 8.1-13 min: 75% B, 13.5-35 min: 0% B, 36-46 min: 95% B, 46.1 min: end. The flow rate was 200 μl/min. Pump pressures ranged from 920-2600 psi over the course of the gradient. All the samples were kept at 4° C. during analysis. The chromatographic peaks were identified using MultiQuant (v3.0, Sciex), confirmed by manual inspection, and the peak areas integrated. […]

[1] = 1-Carbon, Folate, Formate, Glycine, Serine Metabolism, 6-weeks
[2] = 1-Pyrroline-5-carboxylic acid, 6-weeks
[3] = 2-Hydroxyisocaproic acid, 6-weeks
[4] = 2-Hydroxyisovaleric acid, 6-weeks
[5] = 3-Hydroxy-cis-5-tetradecenoylcarnitine, 6-weeks
[6] = 4-Hydroxyphenyllactic acid, 6-weeks
[7] = Amino Acid Metabolism (not otherwise covered), 6-weeks
[8] = Amino-Sugar, Galactose, & Non-Glucose Metabolism, 6-weeks
[9] = Amino-Sugar, Galactose, & Non-Glucose, 2-days
[10] = Bioamines and Neurotransmitter Metabolism, 2-days
[11] = Branch Chain Amino Acid Metabolism, 2-days
[12] = Branch Chain Amino Acid Metabolism, 6-weeks
[13] = Chenodeoxyglycocholic acid, 6-weeks
[14] = Cholesterol, Cortisol, Non-Gonadal Steroid Metabolism, 6-weeks
[15] = Cholesterol, Cortisol, Non-Gonadal Steroid, 2-days
[16] = Cyclic adenosine monophosphate, 6-weeks
[17] = Deoxy guanosine diphosphate, 6-weeks
[18] = Eicosanoid and Resolvin Metabolism, 2-days
[19] = Endocannabinoid Metabolism, 2-days
[20] = Fatty Acid Oxidation and Synthesis, 2-days
[21] = Fatty Acid Oxidation and Synthesis, 6-weeks

## Cc1ccc(C(=O)Nc2ccc(S(=O)(=O)O)c3cc(S(=O)(=O)O)cc(S(=O)(=O)O)c23)cc1NC(=O)c1cccc(NC(=O)Nc2cccc(C(=O)Nc3cc(C(=O)Nc4ccc(S(=O)(=O)O)c5cc(S(=O)(=O)O)cc(S(=O)(=O)O)c45)ccc3C)c2)c1 [Suramin, suramin]
[1]
  Decreased: 0
  Fold Enrichment (Obs/Exp): 3.6
  Fraction of Impact (VIP Score) Explained (% of 94.6): 4%
  Impact (Sum VIP Score): 4.0
  Increased: 2
  Observed Hits in the Top 48 Metabolites: 2
1-Methyladenine, 6-weeks
  Linear Ratio: 2.287
  VIP Score: 2.459
  Z Abs: 2.259
  Z Score: 2.259
[2]
  Linear Ratio: 1.299
  VIP Score: 2.358
  Z Abs: 1.922
  Z Score: 1.922
[3]
  Linear Ratio: 1.306
  VIP Score: 1.622
  Z Abs: 0.997
  Z Score: 0.997
[4]
  Linear Ratio: 1.234
  VIP Score: 1.988
  Z Abs: 1.146
  Z Score: 1.146
2-Keto-L-gluconate, 6-weeks
  Linear Ratio: 1.239
  VIP Score: 2.686
  Z Abs: 2.365
  Z Score: 2.365
2-days after the infusion
  biochemical pathways changed by suramin: 28
[5]
  Linear Ratio: 0.734
  VIP Score: 1.612
  Z Abs: 1.056
  Z Score: −1.056
[6]
  Linear Ratio: 1.294
  VIP Score: 1.945
  Z Abs: 1.172
  Z Score: 1.172
6-week time point
  pathways changed at 2-days that remained changed: 79%
6-weeks
  metabolites significantly changed by suramin (total): 48
Alanine, 6-weeks
  Linear Ratio: 1.322
  VIP Score: 2.456
  Z Abs: 1.687
  Z Score: 1.687
Allantoin, 6-weeks
  Linear Ratio: 1.798
  VIP Score: 1.882
  Z Abs: 1.068
  Z Score: 1.068
[7]
  Decreased: 0
  Fold Enrichment (Obs/Exp): 4.5
  Fraction of Impact (VIP Score) Explained (% of 94.6): 5%
  Impact (Sum VIP Score): 4.3
  Increased: 2
  Observed Hits in the Top 48 Metabolites: 2
Amino Acid Metabolism, 2-days
  Decreased: 0
  Fold Enrichment (Obs/Exp): 1.8
  Fraction of Impact (VIP Score) Explained (% of 119.7): 1%
  Impact (Sum VIP Score): 1.8
  Increased: 1
  Observed Hits in the Top 61 Metabolites: 1
[8]
  Decreased: 0
  Fold Enrichment (Obs/Exp): 1.8
  Fraction of Impact (VIP Score) Explained (% of 94.6): 2%
  Impact (Sum VIP Score): 1.9
  Increased: 1
  Observed Hits in the Top 48 Metabolites: 1
[9]
  Decreased: 0
  Fold Enrichment (Obs/Exp): 1.4
  Fraction of Impact (VIP Score) Explained (% of 119.7): 1%
  Impact (Sum VIP Score): 1.6
  Increased: 1
  Observed Hits in the Top 61 Metabolites: 1
Azelaic acid, 6-weeks
  Linear Ratio: 1.120
  VIP Score: 2.151
  Z Abs: 2.558
  Z Score: 2.558
Bile Acid Metabolism, 6-weeks
  Decreased: 0
  Fold Enrichment (Obs/Exp): 4.5
  Fraction of Impact (VIP Score) Explained (% of 94.6): 6%
  Impact (Sum VIP Score): 5.7
  Increased: 3
  Observed Hits in the Top 48 Metabolites: 3
Bile Salt Metabolism, 2-days
  Decreased: 0
  Fold Enrichment (Obs/Exp): 4.7
  Fraction of Impact (VIP Score) Explained (% of 119.7): 10%
  Impact (Sum VIP Score): 11.9
  Increased: 4
  Observed Hits in the Top 61 Metabolites: 4
[10]
  Decreased: 2
  Fold Enrichment (Obs/Exp): 1.6
  Fraction of Impact (VIP Score) Explained (% of 119.7): 3%
  Impact (Sum VIP Score): 3.3
  Increased: 0
  Observed Hits in the Top 61 Metabolites: 2
[11]
  Decreased: 0
  Fold Enrichment (Obs/Exp): 2.4
  Fraction of Impact (VIP Score) Explained (% of 119.7): 6%
  Impact (Sum VIP Score): 7.3
  Increased: 4
  Observed Hits in the Top 61 Metabolites: 4
[12]
  Decreased: 0
  Fold Enrichment (Obs/Exp): 3.0
  Fraction of Impact (VIP Score) Explained (% of 94.6): 8%
  Impact (Sum VIP Score): 7.4
  Increased: 4
  Observed Hits in the Top 48 Metabolites: 4
Cardiolipin Metabolism, 2-days
  Decreased: 0
  Fold Enrichment (Obs/Exp): 2.0
  Fraction of Impact (VIP Score) Explained (% of 119.7): 3%
  Impact (Sum VIP Score): 3.1
  Increased: 2
  Observed Hits in the Top 61 Metabolites: 2
Ceramide Metabolism, 2-days
  Decreased: 0
  Fold Enrichment (Obs/Exp): 0.2
  Fraction of Impact (VIP Score) Explained (% of 119.7): 1%
  Impact (Sum VIP Score): 1.5
  Increased: 1
  Observed Hits in the Top 61 Metabolites: 1
Chenodeoxycholic acid, 6-weeks
  Linear Ratio: 2.080
  VIP Score: 1.670
  Z Abs: 1.575
  Z Score: 1.575
[13]
  Linear Ratio: 2.858
  VIP Score: 2.052
  Z Abs: 1.650
  Z Score: 1.650
[14]
  Decreased: 0
  Fold Enrichment (Obs/Exp): 1.1
  Fraction of Impact (VIP Score) Explained (% of 94.6): 4%
  Impact (Sum VIP Score): 3.5
  Increased: 2
  Observed Hits in the Top 48 Metabolites: 2
[15]
  Decreased: 0
  Fold Enrichment (Obs/Exp): 0.4
  Fraction of Impact (VIP Score) Explained (% of 119.7): 2%
  Impact (Sum VIP Score): 1.8
  Increased: 1
  Observed Hits in the Top 61 Metabolites: 1
Cinnamoylglycine, 6-weeks
  Linear Ratio: 1.190
  VIP Score: 1.790
  Z Abs: 2.218
  Z Score: 2.218
Citric acid, 6-weeks
  Linear Ratio: 1.363
  VIP Score: 2.410
  Z Abs: 1.772
  Z Score: 1.772
[16]
  Linear Ratio: 0.701
  VIP Score: 1.962
  Z Abs: 1.544
  Z Score: −1.544
Cysteamine, 6-weeks
  Linear Ratio: 1.157
  VIP Score: 2.060
  Z Abs: 2.007
  Z Score: 2.007
Cytosine, 6-weeks
  Linear Ratio: 1.932
  VIP Score: 2.442
  Z Abs: 2.582
  Z Score: 2.582
Decanoylcarnitine, 6-weeks
  Linear Ratio: 0.644
  VIP Score: 1.617
  Z Abs: 1.157
  Z Score: −1.157
[17]
  Linear Ratio: 0.864
  VIP Score: 1.915
  Z Abs: 1.583
  Z Score: −1.583
[18]
  Decreased: 4
  Fold Enrichment (Obs/Exp): 2.2
  Fraction of Impact (VIP Score) Explained (% of 119.7): 6%
  Impact (Sum VIP Score): 7.1
  Increased: 0
  Observed Hits in the Top 61 Metabolites: 4
[19]
  Decreased: 1
  Fold Enrichment (Obs/Exp): 1.8
  Fraction of Impact (VIP Score) Explained (% of 119.7): 1%
  Impact (Sum VIP Score): 1.7
  Increased: 0
  Observed Hits in the Top 61 Metabolites: 1
[20]
  Decreased: 1
  Fold Enrichment (Obs/Exp): 0.2
  Fraction of Impact (VIP Score) Explained (% of 119.7): 2%
  Impact (Sum VIP Score): 1.8
  Increased: 0
  Observed Hits in the Top 61 Metabolites: 1
[21]
  Decreased: 3
  Fold Enrichment (Obs/Exp): 0.7
  Fraction of Impact (VIP Score) Explained (% of 94.6): 5%
  Impact (Sum VIP Score): 5.0
